Measured values published in patent publication US20250127787A1, “METHODS FOR TREATING PERIPHERAL NEUROPATHY” (University of Pittsburgh - Of the Commonwealth System of …, priority 2021, published 2025).
Entries after “also recorded” stand apart in the source; their conditions may differ.

Tested on: superoxide dismutase (SOD1)
Assay: SOD1 expression in rat epidermis after sciatic nerve injury, Western immunoblotting
Assay type: in vivo
Settings: 8-AG 5 mg/kg/day in drinking water
Experimental: Animals. This study employed female Harlan Sprague Dawley (HSD) rats (3-4 mo; Envigo, Indianapolis, IN) and were divided into the following groups: 1) Control, 2) Sciatic nerve crush (day 0, sacrifice on day 6); 3) 8-aminoguanine (8-AG; 5 mg/kg/day in drinking water; beginning 2 weeks prior to nerve crush and continuing until sacrifice (day 6)). The dose of 8-AG is based on the work above and published experiments. Further, the water consumption/day was tracked. […] All tissues (hindpaw epidermis) were removed from isoflurane anesthetized rats and the tissue was used for various experimental approaches as described below. At the end of tissue removal, animals were sacrificed by thoracotomy. […]

Nc1nc2[nH]c(N)nc2c(=O)[nH]1 [8-AG, 8-Aminoguanine]
effect on sciatic nerve injury-induced decrease in SOD1 expression: restored to control values; also recorded: normalized
effect on sciatic nerve injury-induced decrease in SOD1 expression (listed as 8-Aminoguanine): normalized
